Laboratory results as given in patent US6737383B1, “Herbicidal oxadiazolidines” (priority 1999, dated 2004).

Key:
cocklebur = assay: Test B pre/postemergence cocklebur; format: in vivo, Xanthium strumarium
Procedure, shortened: (§1)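 Herbicidal effect was estimated by eye on a ten-point control scale after plants spent twelve to sixteen days in a greenhouse following soil or foliar treatment. Foliar sprays targeted plants at one to four leaves; all doses were formulated in a non-phytotoxic solvent with surfactant.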

pigweed = assay: Test B pre/postemergence pigweed; format: in vivo, Amaranthus retroflexus
Procedure, shortened: as §1

sugar beet = assay: Test B pre/postemergence sugar beet; format: in vivo, Beta vulgaris
Procedure, shortened: as §1

bamyardgrass = assay: Test B flood test barnyardgrass; format: in vivo, Echinochloa crus-galli
Procedure, shortened: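 Each value is a visual injury score relative to controls, with 10 meaning complete control and 0 no effect. Evaluation took place twelve to sixteen days after the 2-leaf-stage plants were treated and kept in the greenhouse.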

winter wheat [1] = assay: Test E winter wheat; format: in vivo, Triticum aestivum; conditions: Postemergence; for Plant response rating, Wheat (winter): 0 to 100 scale
Procedure, shortened: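 Plants were grown under normal greenhouse practice; for postemergence, in sandy loam soil mixed 60:40 with potting mix, treated at the 1- to 4-leaf stage. The compound was in a non-phytotoxic solvent carrying a surfactant. After roughly 21 to 28 days plants were scored visually against untreated plants.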

blackgrass = assay: Test E blackgrass; format: in vivo, Alopecurus myosuroides; conditions: Preemergence; for Blackgrass plant response rating (0 to 100 scale): Rate 250 g/ha
green foxtail = assay: Test E green foxtail; format: in vivo, Setaria viridis; conditions: Preemergence; for Green foxtail plant response rating (0 to 100 scale): Rate 250 g/ha
Italian ryegrass = assay: Test E Italian ryegrass; format: in vivo, Lolium multiflorum; conditions: Preemergence; for I. Ryegrass plant response rating (0 to 100 scale): Rate 250 g/ha
winter wheat [2] = assay: Test E winter wheat; format: in vivo, Triticum aestivum; conditions: Preemergence; for Wheat (winter) plant response rating (0 to 100 scale): Rate 250 g/ha
wild oat = assay: Test E wild oat; format: in vivo, Avena fatua; conditions: Preemergence; for Wild oat plant response rating (0 to 100 scale): Rate 250 g/ha
winter barley = assay: Test E winter barley; format: in vivo, Hordeum vulgare; conditions: Preemergence; for Barley (winter) plant response rating (0 to 100 scale): Rate 250 g/ha
[3] = Postemergence, Rate 125 g/ha, scale of 0 to 10 where 0 is no effect and 10 is complete control
[4] = Postemergence, Rate 1000 g/ha, scale 0 to 10 (0 no effect, 10 complete control)
[5] = Preemergence, Rate 125 g/ha, 0 is no effect, 10 is complete control
[6] = Preemergence, Rate 250 g/ha, scale 0 to 10, 0 is no effect, 10 is complete control
[7] = Preemergence, Rate 500 g/ha, scale 0 to 10 (0 no effect, 10 complete control)
[8] = Rate 250 g/ha, Postemergence, scale 0 to 10, 0 is no effect, 10 is complete control
[9] = Rate 500 g/ha, Postemergence, scale 0 to 10
[10] = Rate 1000 g/ha, Preemergence, scale 0 to 10 (0 no effect, 10 complete control)
[11] = Rate 500 g/ha, 0 is no effect, 100 is complete control
[12] = Rate 500 g/ha, 0 to 100 scale where 0 is no effect and 100 is complete control
[13] = Rate 1000 g/ha, 0 to 100 scale where 0 is no effect and 100 is complete control
[14] = Preemergence, Rate 62 g/ha, scale of 0 to 10 where 0 is no effect and 10 is complete control
[15] = Preemergence, Rate 250 g/ha, scale of 0 to 10 where 0 is no effect and 10 is complete control
[16] = Preemergence, Rate 500 g/ha, scale of 0 to 10 where 0 is no effect and 10 is complete control
[17] = Rate 62 g/ha, Postemergence, scale of 0 to 10 where 0 is no effect and 10 is complete control
[18] = Rate 125 g/ha, Postemergence, scale 0 to 10
[19] = Rate 125 g/ha, Preemergence, scale of 0 to 10 where 0 is no effect and 10 is complete control
[20] = Rate 500 g/ha, Postemergence, scale 0 to 10, 0 no effect, 10 complete control
[21] = Rate 125 g/ha, 0 to 100 scale (0 no effect, 100 complete control)

Cc1ccccc1-n1c(=O)on(C(=O)N(c2c(F)cccc2F)C(C)C)c1=O [Compound 176]
Cocklebur plant response rating (cocklebur; [3]): 2
Cocklebur plant response rating (cocklebur; [4]): 6
Cocklebur plant response rating (0 to 10 scale) (cocklebur; [5]): 0
Cocklebur plant response rating (cocklebur; [6]): 0
Cocklebur plant response rating (cocklebur; [7]): 0
Plant response rating, Cocklebur (cocklebur; [8]): 2
Cocklebur plant response rating (cocklebur; [9]): 3
Plant response rating, Cocklebur (cocklebur; [10]): 0
Redroot pigweed plant response rating (pigweed; [3]): 0
Redroot pigweed plant response rating (pigweed; [4]): 1
Redroot pigweed plant response rating (0 to 10 scale) (pigweed; [5]): 0
Redroot pigweed plant response rating (pigweed; [6]): 0
Redroot pigweed plant response rating (pigweed; [7]): 0
Plant response rating, Redroot pigweed (pigweed; [8]): 0
Redroot pigweed plant response rating (pigweed; [9]): 0
Plant response rating, Redroot pigweed (pigweed; [10]): 0
Sugarbeets plant response rating (sugar beet; [3]): 0
Sugarbeets plant response rating (sugar beet; [4]): 4
Sugarbeets plant response rating (0 to 10 scale) (sugar beet; [5]): 0
Sugarbeets plant response rating (sugar beet; [6]): 0
Sugarbeets plant response rating (sugar beet; [7]): 2
Plant response rating, Sugarbeets (sugar beet; [8]): 0
Sugarbeets plant response rating (sugar beet; [9]): 0
Plant response rating, Sugarbeets (sugar beet; [10]): 6
Barnyardgrass plant response rating (bamyardgrass; Postemergence (flood test species), Rate 125 g/ha, scale of 0 to 10 where 0 is no effect and 10 is complete control): 0
Barnyardgrass plant response rating (bamyardgrass; [4]): 0
Plant response rating, Barnyardgrass (bamyardgrass; Rate 250 g/ha, Postemergence (flood test), scale 0 to 10, 0 is no effect, 10 is complete control): 0
Barnyardgrass plant response rating (bamyardgrass; Rate 500 g/ha, listed under Postemergence (flood test species), scale 0 to 10): 0
Plant response rating, Wheat (winter) (winter wheat [1]; Rate 1000 g/ha, 0 is no effect and 100 is complete control): 40
Plant response rating, Wheat (winter) (winter wheat [1]; [11]): 50
Blackgrass plant response rating (0 to 100 scale) (blackgrass): 40
Plant response rating, Blackgrass (blackgrass; [12]): 50
Plant response rating, Blackgrass (blackgrass; [13]): 75
Green foxtail plant response rating (0 to 100 scale) (green foxtail): 50
Plant response rating, Green foxtail (green foxtail; [12]): 70
Plant response rating, Green foxtail (green foxtail; [13]): 100
I. Ryegrass plant response rating (0 to 100 scale) (Italian ryegrass): 50
Plant response rating, I. Ryegrass (Italian ryegrass; [12]): 60
Plant response rating, I. Ryegrass (Italian ryegrass; [13]): 98
Wheat (winter) plant response rating (0 to 100 scale) (winter wheat [2]): 20
Plant response rating, Wheat (winter) (winter wheat [2]; [12]): 30
Plant response rating, Wheat (winter) (winter wheat [2]; [13]): 50
Wild oat plant response rating (0 to 100 scale) (wild oat): 30
Plant response rating, Wild oat (wild oat; [12]): 50
Plant response rating, Wild oat (wild oat; [13]): 50
Barley (winter) plant response rating (0 to 100 scale) (winter barley): 30
Plant response rating, Barley (winter) (winter barley; [12]): 40
Plant response rating, Barley (winter) (winter barley; [13]): 50

CC(C)N(C(=O)n1oc(=O)n(CCC2OCCO2)c1=O)c1ccc(F)cc1 [Compound 219]
Cocklebur plant response rating (cocklebur; [14]): 0
Cocklebur plant response rating (cocklebur; [15]): 0
Plant response rating, Cocklebur (cocklebur; [16]): 0
Cocklebur plant response rating (cocklebur; [17]): 1
Cocklebur plant response rating (cocklebur; [18]): 1
Cocklebur plant response rating (cocklebur; [19]): 0
Plant response rating (0 to 10; 0 is no effect, 10 is complete control), Cocklebur (cocklebur; Rate 250 g/ha, Postemergence): 4
Cocklebur plant response rating (cocklebur; [20]): 4
Redroot pigweed plant response rating (pigweed; [14]): 0
Redroot pigweed plant response rating (pigweed; [15]): 9
Plant response rating, Redroot pigweed (pigweed; [16]): 10
Redroot pigweed plant response rating (pigweed; [17]): 5
Redroot pigweed plant response rating (pigweed; [18]): 7
Redroot pigweed plant response rating (pigweed; [19]): 4
Plant response rating (0 to 10; 0 is no effect, 10 is complete control), Redroot pigweed (pigweed; Rate 250 g/ha, Postemergence): 8
Redroot pigweed plant response rating (pigweed; [20]): 8
Sugarbeets plant response rating (sugar beet; [14]): 3
Sugarbeets plant response rating (sugar beet; [15]): 4
Plant response rating, Sugarbeets (sugar beet; [16]): 8
Sugarbeets plant response rating (sugar beet; [17]): 4
Sugarbeets plant response rating (sugar beet; [18]): 4
Sugarbeets plant response rating (sugar beet; [19]): 4
Plant response rating (0 to 10; 0 is no effect, 10 is complete control), Sugarbeets (sugar beet; Rate 250 g/ha, Postemergence): 4
Sugarbeets plant response rating (sugar beet; [20]): 7
Barnyardgrass plant response rating (bamyardgrass; Rate 62 g/ha, headed Pre-emergence (flood test species), scale 0 to 10 (0 no effect, 10 complete control)): 0
Barnyardgrass plant response rating (bamyardgrass; Rate 125 g/ha, Pre-emergence, flood test species, scale 0 to 10 where 0 is no effect and 10 is complete control): 0
Barnyardgrass plant response rating (bamyardgrass; Rate 250 g/ha, Pre-emergence, flood-test species, scale 0 to 10, 0 is no effect, 10 is complete control): 8
Barnyardgrass plant response rating (bamyardgrass; Rate 500 g/ha, Pre-emergence, flood test species, scale 0 to 10 (0 no effect, 10 complete control)): 9
Plant response rating, Wheat (winter) (winter wheat [1]; Rate 125 g/ha, 0 is no effect, 100 is complete control): 20
Wheat (winter) plant response rating (winter wheat [1]; Rate 250 g/ha, 0 to 100 scale where 0 is no effect and 100 is complete control): 50
Plant response rating, Wheat (winter) (winter wheat [1]; [11]): 60
Plant response rating, Blackgrass (blackgrass; [21]): 0
Blackgrass plant response rating (0 to 100 scale) (blackgrass): 20
Plant response rating, Blackgrass (blackgrass; [12]): 70
Plant response rating, Green foxtail (green foxtail; [21]): 65
Green foxtail plant response rating (0 to 100 scale) (green foxtail): 60
Plant response rating, Green foxtail (green foxtail; [12]): 70
Plant response rating, I. Ryegrass (Italian ryegrass; [21]): 30
I. Ryegrass plant response rating (0 to 100 scale) (Italian ryegrass): 55
Plant response rating, I. Ryegrass (Italian ryegrass; [12]): 70
Plant response rating, Wheat (winter) (winter wheat [2]; [21]): 35
Wheat (winter) plant response rating (0 to 100 scale) (winter wheat [2]): 60
Plant response rating, Wheat (winter) (winter wheat [2]; [12]): 60
Plant response rating, Wild oat (wild oat; [21]): 30
Wild oat plant response rating (0 to 100 scale) (wild oat): 50
Plant response rating, Wild oat (wild oat; [12]): 60
Plant response rating, Barley (winter) (winter barley; [21]): 20
Barley (winter) plant response rating (0 to 100 scale) (winter barley): 30
Plant response rating, Barley (winter) (winter barley; [12]): 70
